IC50 data for 18 molecules are collected here from patent US11685732B2, “MYST family histone acetyltransferase inhibitors” (Epizyme, Inc., priority 2017, dated 2023).

pIC50: −log10 of the molar value.

One assay deals with KAT-8 (Homo sapiens (Human), UniProt Q9H7Z6). The experiment in a line: KAT-8 biochemical inhibition assay (SAMDI mass spectrometry). The protocol:
(§1) KAT-8. Enzyme assay buffer was 50 mM Tris pH 8.0, 0.002% Tween20, 0.005% bovine skin gelatin, and 1 mM dithiothreitol (DTT). For determination of IC50 values, compounds were serially diluted with 2% (v/v) DMSO in the final reaction, pre-incubating each dilution of each compound with 40 μL of assay buffer containing KAT-8 enzyme (12.5 nM final concentration). 10 μL of assay buffer containing 1 μM peptide substrate and 5 μM acetyl coenzyme A (final concentrations) was added. Reactions (50 μL total) were then carried out at 25° C. for 90 minutes. Reactions were terminated by the addition of 0.5% formic acid (final concentration), and a sample of each reaction was analyzed by SAMDI Tech, Inc. (Chicago, Ill.) using self-assembled monolayer desorption/ionization time-of-flight mass spectrometry (Mrksich, M. (2008) Mass spectrometry of self-assembled monolayers: a new tool for molecular surface science. ACS Nano 2, 7-18).

A further assay addresses KAT-6A (Homo sapiens (Human), UniProt Q92794). The experiment in a line: KAT-6A biochemical inhibition assay (SAMDI mass spectrometry). The protocol:
as §1, with “KAT-6A. Enzyme” for “KAT-8. Enzyme”, “containing KAT-6A” for “containing KAT-8”, “and 1” for “and 5”

In the next assay the target is KAT-5 (Homo sapiens (Human), UniProt Q92993). The experiment in a line: KAT-5 biochemical inhibition assay (SAMDI mass spectrometry). The protocol: as §1, with “KAT-5. Enzyme” for “KAT-8. Enzyme”, “containing KAT-5” for “containing KAT-8”, “enzyme (9” for “enzyme (12.5”, “and 0.5” for “and 5”
KAT-5, sequence (Q92993 other isoform, or with tags, fused parts or gaps): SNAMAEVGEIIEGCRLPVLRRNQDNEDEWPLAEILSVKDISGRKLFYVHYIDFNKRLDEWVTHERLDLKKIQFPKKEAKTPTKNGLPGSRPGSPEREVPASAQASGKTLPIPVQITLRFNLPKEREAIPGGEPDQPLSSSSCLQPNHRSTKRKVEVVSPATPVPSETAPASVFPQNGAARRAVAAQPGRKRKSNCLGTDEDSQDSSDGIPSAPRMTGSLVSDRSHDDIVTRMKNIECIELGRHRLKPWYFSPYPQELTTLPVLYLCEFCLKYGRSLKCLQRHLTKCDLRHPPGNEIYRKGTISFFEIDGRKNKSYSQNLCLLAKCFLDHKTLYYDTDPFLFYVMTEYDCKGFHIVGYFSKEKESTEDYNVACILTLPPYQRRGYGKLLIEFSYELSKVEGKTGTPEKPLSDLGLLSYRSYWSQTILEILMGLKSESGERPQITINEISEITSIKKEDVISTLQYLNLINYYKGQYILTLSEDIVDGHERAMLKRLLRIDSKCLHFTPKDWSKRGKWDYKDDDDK

KAT-8, sequence (Q9H7Z6 other isoform, or with tags, fused parts or gaps): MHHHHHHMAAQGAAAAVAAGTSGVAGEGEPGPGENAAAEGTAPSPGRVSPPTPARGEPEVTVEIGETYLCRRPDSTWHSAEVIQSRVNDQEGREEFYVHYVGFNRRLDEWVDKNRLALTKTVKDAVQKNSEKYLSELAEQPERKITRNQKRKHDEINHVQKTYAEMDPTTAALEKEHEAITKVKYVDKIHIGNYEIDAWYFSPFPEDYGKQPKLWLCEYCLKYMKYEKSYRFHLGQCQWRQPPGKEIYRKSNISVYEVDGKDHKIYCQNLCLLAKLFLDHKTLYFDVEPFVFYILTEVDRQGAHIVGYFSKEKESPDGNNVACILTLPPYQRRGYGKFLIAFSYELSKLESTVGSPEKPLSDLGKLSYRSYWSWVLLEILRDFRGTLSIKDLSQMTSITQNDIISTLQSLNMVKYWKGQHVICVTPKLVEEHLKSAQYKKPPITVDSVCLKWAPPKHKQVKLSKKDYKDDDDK
KAT-6A, sequence (Q92794 other isoform, or with tags, fused parts or gaps): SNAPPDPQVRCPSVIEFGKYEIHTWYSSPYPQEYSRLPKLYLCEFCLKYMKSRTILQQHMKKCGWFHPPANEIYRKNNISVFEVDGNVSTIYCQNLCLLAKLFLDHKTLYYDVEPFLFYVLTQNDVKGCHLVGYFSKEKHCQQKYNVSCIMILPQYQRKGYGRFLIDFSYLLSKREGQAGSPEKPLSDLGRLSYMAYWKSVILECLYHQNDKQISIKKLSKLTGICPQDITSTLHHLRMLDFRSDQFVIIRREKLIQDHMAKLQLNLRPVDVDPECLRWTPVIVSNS

`CNC(=O)N[C@H]1C[C@@H](CS(=O)(=O)NNC(=O)c2cc(-c3cn(C)cn3)cc(Cl)c2F)C1` [Compound I-197] had a pIC50 on KAT-8 of 4.30 to 5.00.

`Cn1cnc(-c2cc(Cl)c(F)c(C(=O)NNS(=O)(=O)C[C@H]3CC[C@H]4CC[C@@H]3N4C(=O)OC(C)(C)C)c2)c1` [Compound I-259]: the figures for the pIC50 on KAT-6A, against KAT-8 and on KAT-5 were 4.30 to 5.00, 4.30 to 5.00 and > 5.00, respectively.

In the case of `C[C@@H]1CNC[C@H]1CS(=O)(=O)NNC(=O)c1cc(-c2cn(C)cn2)cc(Cl)c1F` [Compound I-263], the pIC50 on KAT-6A, against KAT-8 and on KAT-5 was 4.30 to 5.00 each time.

For `Cn1cnc(-c2cc(Cl)c(F)c(C(=O)NNS(=O)(=O)CC3CCCC(NC(=O)Cc4ccccn4)C3)c2)c1` (centres unmarked) [Compound I-268], the figures for the pIC50 on KAT-6A, against KAT-8 and against KAT-5 were > 5.00, 4.30 to 5.00 and > 5.00, respectively.

With `Cn1cnc(-c2cc(Cl)c(F)c(C(=O)NNS(=O)(=O)C[C@H]3CC[C@H](NC(=O)c4ccncc4)CC3)c2)c1` [Compound I-269], the pIC50 against KAT-6A was > 5.00; at KAT-8, 4.30 to 5.00; on KAT-5 it was > 5.00.

As to `COC1CCCC(CS(=O)(=O)NNC(=O)c2cc(-c3cn(C)cn3)cc(Cl)c2F)C1` (centres unmarked) [Compound I-270], the values for the pIC50 on KAT-6A, against KAT-8 and at KAT-5 were > 5.00, 4.30 to 5.00 and > 5.00, respectively.

As for `CCNC(=O)N1C[C@H](CS(=O)(=O)NNC(=O)c2cc(-c3cn(C)cn3)cc(Cl)c2F)[C@@H](C)C1` [Compound I-271], the negative logarithm of the IC50 (pIC50) against KAT-6A, at KAT-8 and on KAT-5 was 4.30 to 5.00 in each case.

On to `Cn1cnc(-c2cc(Cl)c(F)c(C(=O)NNS(=O)(=O)CC3CCOC3)c2)c1` (centres unmarked) [Compound I-272], for which the pIC50 against KAT-6A is > 5.00; against KAT-8, 4.30 to 5.00; at KAT-5, > 5.00.

With `Cn1cnc(-c2cc(Cl)c(F)c(C(=O)NNS(=O)(=O)CC3CCCOC3)c2)c1` (centres unmarked) [Compound I-273], the pIC50 against KAT-6A was > 5.00; against KAT-8, 4.30 to 5.00; at KAT-5 it was > 5.00.

`CN(C(=O)OC(C)(C)C)C1CCCC(CS(=O)(=O)NNC(=O)c2cc(-c3cn(C)cn3)cc(Cl)c2F)C1` (centres unmarked) [Compound I-274]: the values for the pIC50 against KAT-6A, against KAT-8 and on KAT-5 were > 5.00, 4.30 to 5.00 and > 5.00, respectively.

Turning to `Cn1cnc(-c2cc(Cl)c(F)c(C(=O)NNS(=O)(=O)CC34CC5CC(CC(C5)C3)C4)c2)c1` [Compound I-275], the pIC50 at KAT-6A was > 5.00; at KAT-8 it was 4.30 to 5.00; on KAT-5 it was > 5.00.

In the case of `Cn1cnc(-c2cc(Cl)c(F)c(C(=O)NNS(=O)(=O)CC3CCCO3)c2)c1` (centres unmarked) [Compound I-276], the values for the pIC50 against KAT-6A, on KAT-8 and against KAT-5 were > 5.00, 4.30 to 5.00 and > 5.00, respectively.

With `CC(=O)N1[C@H]2CC[C@@H](CS(=O)(=O)NNC(=O)c3cc(-c4cn(C)cn4)cc(Cl)c3F)[C@@H]1CC2` [Compound I-277], the pIC50 is > 5.00 on KAT-6A, 4.30 to 5.00 at KAT-8 and > 5.00 against KAT-5.

In the case of `COC1CCC(CS(=O)(=O)NNC(=O)c2cc(-c3cn(C)cn3)cc(Cl)c2F)CC1` (centres unmarked) [Compound I-278], the negative logarithm of the IC50 (pIC50) is > 5.00 on KAT-6A, 4.30 to 5.00 against KAT-8 and > 5.00 on KAT-5.

As for `Cn1cnc(-c2cc(Cl)c(F)c(C(=O)NNS(=O)(=O)CC3CCCCO3)c2)c1` (centres unmarked) [Compound I-279], the pIC50 at KAT-6A is > 5.00; at KAT-8, 4.30 to 5.00; against KAT-5, > 5.00.

Consider `CN(C(=O)OC(C)(C)C)C1CC(CS(=O)(=O)NNC(=O)c2cc(-c3cn(C)cn3)cc(Cl)c2F)C1` (centres unmarked) [Compound I-390], for which the pIC50 against KAT-6A was 4.30 to 5.00; at KAT-8, < 4.00; against KAT-5 it was > 5.00.

In the case of `Cn1cnc(-c2cc(Cl)c(F)c(C(=O)NNS(=O)(=O)c3cccc(O)n3)c2)c1` [Compound I-391], the values for the pIC50 on KAT-6A, against KAT-8 and on KAT-5 were > 5.00, 4.00 to 4.30 and > 5.00, respectively.

As for `COc1ccc(COc2cccc(S(=O)(=O)NNC(=O)c3cc(-c4cn(C)cn4)cc(Cl)c3F)c2)cc1` [Compound I-397], on KAT-8, the pIC50 is < 4.00.

In general, pIC50 refers to the IC50 on a negative log10 scale, so that one unit is a factor of ten.
